Results on 25 molecules are retold here after ChEMBL document CHEMBL1145531, “Cyclopentanone ring-cleaved pleuromutilin derivatives” (2007).

One assay deals with Staphylococcus aureus. The experiment in a line: Antibacterial activity against Staphylococcus aureus A15090 after 24 hrs. Conditions: A15090, 24 h. Format: functional.
In the next assay the test system is Streptococcus pneumoniae. As to the kind of experiment: Antibacterial activity against Streptococcus pneumoniae A9585 after 24 hrs. Conditions: A9585, 24 h. It counts as functional.

The structures appear in SMILES notation. Values after ≈ are worked out from the molar mass of the structure shown.

Take `C=C[C@]1(C)C[C@@H](OC(=O)CO)[C@]2(C)[C@H](C)CC[C@]3(CCC(=O)[C@@H]32)[C@@H](C)[C@@H]1O` [PLEUROMUTILIN]: the minimal inhibitory concentration (MIC) in the assay with Staphylococcus aureus and with Streptococcus pneumoniae was 0.5 µg/mL (≈ 1.32 µM) throughout.

In the case of `C=C[C@]1(C)C[C@@H](OC(=O)CSc2ccncc2)[C@@]2(C)C(=O)[C@](CCC(=O)OCC)(CCC2C)[C@@H](C)[C@@H]1O` (stereo not given in full), the MIC in the assay with Staphylococcus aureus and against Streptococcus pneumoniae was 8 µg/mL (≈ 15 µM) in each case.

`C=C[C@]1(C)C[C@@H](OC(=O)CSc2ccccn2)[C@@]2(C)C(=O)[C@](CCC(=O)OCC)(CCC2C)[C@@H](C)[C@@H]1O` (stereo not given in full): the MIC in the assay with Staphylococcus aureus and against Streptococcus pneumoniae was 1 µg/mL (≈ 1.88 µM) in each case.

As for `C=C[C@]1(C)C[C@@H](OC(=O)CSc2ccccc2C(=O)O)[C@@]2(C)C(=O)[C@](CCC(=O)N(CC)CC)(CCC2C)[C@@H](C)[C@@H]1O` (stereo not given in full), the minimum inhibitory concentration (MIC) against Staphylococcus aureus worked out at 32 µg/mL (≈ 53.2 µM); in the assay with Streptococcus pneumoniae, 4 µg/mL (≈ 6.65 µM).

On to `C=C[C@]1(C)C[C@@H](OC(=O)CSc2cccc(N)c2)[C@@]2(C)C(=O)[C@](CCC(=O)NCC(=O)O)(CCC2C)[C@@H](C)[C@@H]1O` (stereo not given in full), for which the MIC against Staphylococcus aureus worked out at 8 µg/mL (≈ 13.9 µM); against Streptococcus pneumoniae, 2 µg/mL (≈ 3.48 µM).

In the case of `C=C[C@]1(C)C[C@@H](OC(=O)CSc2cccc(N)c2)[C@@]2(C)C(=O)[C@](CCC)(CCC2C)[C@@H](C)[C@@H]1O` (stereo not given in full), the MIC against Staphylococcus aureus was determined as 16 µg/mL (≈ 32.8 µM); in the assay with Streptococcus pneumoniae it was 8 µg/mL (≈ 16.4 µM).

With `C=C[C@]1(C)C[C@@H](OC(=O)CO)[C@@]2(C)C(=O)[C@](CCC(=O)O)(CCC2C)[C@@H](C)[C@@H]1O` (stereo not given in full), the MIC in the assay on Staphylococcus aureus and against Streptococcus pneumoniae was 8 µg/mL (≈ 19.5 µM) in each case.

With `C=C[C@]1(C)C[C@@H](OC(=O)CSc2ccccn2)[C@@]2(C)C(=O)[C@](CCC(=O)O)(CCC2C)[C@@H](C)[C@@H]1O` (stereo not given in full), the minimum inhibitory concentration (MIC) in the assay with Staphylococcus aureus and against Streptococcus pneumoniae was 8 µg/mL (≈ 15.9 µM) throughout.

As to `C=C[C@]1(C)C[C@@H](OC(=O)CSc2cc(C)nc(C)c2)[C@@]2(C)C(=O)[C@](CCC(=O)N(CC)CC)(CCC2C)[C@@H](C)[C@@H]1O` (stereo not given in full), the MIC in the assay with Staphylococcus aureus worked out at 32 µg/mL (≈ 54.5 µM); with Streptococcus pneumoniae it was 4 µg/mL (≈ 6.82 µM).

For the molecule `C=C[C@]1(C)C[C@@H](OC(=O)CSc2ccccc2O)[C@@]2(C)C(=O)[C@](CCC(=O)O)(CCC2C)[C@@H](C)[C@@H]1O` (stereo not given in full), the values for the MIC in the assay on Staphylococcus aureus and in the assay with Streptococcus pneumoniae were 8 µg/mL (≈ 15.4 µM) and 4 µg/mL (≈ 7.71 µM), respectively.

In the case of `C=C[C@]1(C)C[C@@H](OC(=O)CO)[C@@]2(C)C(=O)[C@](CCC(=O)N(CC)CC)(CCC2C)[C@@H](C)[C@@H]1O` (stereo not given in full), the values for the minimum inhibitory concentration (MIC) in the assay on Staphylococcus aureus and in the assay on Streptococcus pneumoniae were more than 128 µg/mL and more than 64 µg/mL, respectively.

Turning to `C=C[C@]1(C)C[C@@H](OC(=O)CSc2nnc(N)[nH]2)[C@@]2(C)C(=O)[C@](CCC(=O)O)(CCC2C)[C@@H](C)[C@@H]1O` (stereo not given in full), the minimal inhibitory concentration (MIC) in the assay with Staphylococcus aureus was more than 128 µg/mL; against Streptococcus pneumoniae, more than 64 µg/mL.

For the molecule `C=C[C@]1(C)C[C@@H](OC(=O)CSc2ccccc2)[C@@]2(C)C(=O)[C@](CCC(=O)O)(CCC2C)[C@@H](C)[C@@H]1O` (stereo not given in full), the minimum inhibitory concentration (MIC) in the assay with Staphylococcus aureus was more than 128 µg/mL; against Streptococcus pneumoniae, more than 64 µg/mL.

`C=C[C@]1(C)C[C@@H](OC(=O)CO)[C@@]2(C)C(=O)[C@](CCC(N)=O)(CCC2C)[C@@H](C)[C@@H]1O` (stereo not given in full): the results for the MIC with Staphylococcus aureus and in the assay on Streptococcus pneumoniae were 128 µg/mL (≈ 313 µM) and 64 µg/mL (≈ 156 µM), respectively.

For the molecule `C=C[C@]1(C)C[C@@H](OC(=O)CO)[C@@]2(C)C(=O)[C@](CCCNC(=O)c3ccno3)(CCC2C)[C@@H](C)[C@@H]1O` (stereo not given in full), the MIC was 32 µg/mL (≈ 65.2 µM) against Staphylococcus aureus and 2 µg/mL (≈ 4.08 µM) with Streptococcus pneumoniae.

Consider `C=C[C@]1(C)C[C@@H](OC(=O)CSc2cccc(N)c2)[C@@]2(C)C(=O)[C@](CCC(=O)N(CC)CC)(CCC2C)[C@@H](C)[C@@H]1O` (stereo not given in full), for which the figures for the MIC against Staphylococcus aureus and in the assay on Streptococcus pneumoniae were 32 µg/mL (≈ 55.9 µM) and 4 µg/mL (≈ 6.98 µM), respectively.

Turning to `C=C[C@]1(C)C[C@@H](OC(=O)CSc2cccc(N)c2)[C@@]2(C)C(=O)[C@](CCC(=O)O)(CCC2C)[C@@H](C)[C@@H]1O` (stereo not given in full), the MIC in the assay with Staphylococcus aureus was found to be 0.25 µg/mL (≈ 0.483 µM); with Streptococcus pneumoniae it was 0.125 µg/mL (≈ 0.241 µM).

`C=C[C@]1(C)C[C@@H](OC(=O)CSc2cccc(N)c2)[C@@]2(C)C(=O)[C@](CCC(=O)NCC(=O)OC(C)(C)C)(CCC2C)[C@@H](C)[C@@H]1O` (stereo not given in full): the MIC against Staphylococcus aureus stood at 4 µg/mL (≈ 6.34 µM); in the assay with Streptococcus pneumoniae it was 0.5 µg/mL (≈ 0.793 µM).

Consider `C=C[C@]1(C)C[C@@H](OC(=O)CO)[C@@]2(C)C(=O)[C@](CCN)(CCC2C)[C@@H](C)[C@@H]1O` (stereo not given in full), for which the MIC was more than 128 µg/mL against Staphylococcus aureus and more than 64 µg/mL in the assay with Streptococcus pneumoniae.

Turning to `C=C[C@]1(C)C[C@@H](OC(=O)CO)[C@@]2(C)C(=O)[C@](CCNC(=O)OCC)(CCC2C)[C@@H](C)[C@@H]1O` (stereo not given in full), the MIC in the assay on Staphylococcus aureus amounted to 16 µg/mL (≈ 35.3 µM); in the assay with Streptococcus pneumoniae, 0.25 µg/mL (≈ 0.551 µM).

On to `C=C[C@]1(C)C[C@@H](OC(=O)CO)[C@@]2(C)C(=O)[C@](CCCO)(CCC2C)[C@@H](C)[C@@H]1O` (stereo not given in full), for which the minimum inhibitory concentration (MIC) with Staphylococcus aureus is more than 128 µg/mL; against Streptococcus pneumoniae, more than 64 µg/mL.

Take `C=C[C@]1(C)C[C@@H](OC(=O)CSc2cccc(N)c2)[C@@]2(C)C(=O)[C@](CCC(=O)OCC)(CCC2C)[C@@H](C)[C@@H]1O` (stereo not given in full): the MIC with Staphylococcus aureus and with Streptococcus pneumoniae was 1 µg/mL (≈ 1.83 µM) each time.

As to `C=C[C@]1(C)C[C@@H](OC(=O)CO)[C@@]2(C)C(=O)[C@](CCC(=O)NCC)(CCC2C)[C@@H](C)[C@@H]1O` (stereo not given in full), the minimal inhibitory concentration (MIC) was more than 128 µg/mL with Staphylococcus aureus and more than 64 µg/mL against Streptococcus pneumoniae.

Turning to `C=C[C@]1(C)C[C@@H](OC(=O)CSc2ccncc2)[C@@]2(C)C(=O)[C@](CCC(=O)O)(CCC2C)[C@@H](C)[C@@H]1O` (stereo not given in full), the MIC against Staphylococcus aureus was 128 µg/mL (≈ 254 µM); in the assay with Streptococcus pneumoniae, 64 µg/mL (≈ 127 µM).

Regarding `C=C[C@]1(C)C[C@@H](OC(=O)CO)[C@@]2(C)C(=O)[C@](CCNC(=O)OCc3ccccc3)(CCC2C)[C@@H](C)[C@@H]1O` (stereo not given in full), the MIC against Staphylococcus aureus turned out to be 16 µg/mL (≈ 31 µM); with Streptococcus pneumoniae it was 0.25 µg/mL (≈ 0.485 µM).

Usually MIC stands for the lowest concentration found to suppress growth. A low value points to greater potency.
